Non-standard residues stand in square brackets, D forms with d. Residues, ends and D or L forms follow the SMILES beside them.
Assay: Dissolution of the peptide in water
Format: physicochemical
Details: before addition of saline buffer pH 7.4
Protocol: Gels were prepared by dissolving lyophilized peptide in water to obtain 2X concentrated (wt%) peptide stock solution. Peptide assembly was initiated by mixing together equal volumes of peptide stock solution and chilled 2X HEPES buffer solution (150 mM HEPES, 300 mM NaCl, pH 7.4) on ice. The final mixed solution (1X wt% peptide in 75 mM HEPES, 150 mM NaCl, pH 7.4) was then incubated for 2 h at 37°C, resulting with a self-supporting gel.

Solubility in water: readily dissolved in water
SMILES: CC(C)[C@H](N)C(=O)N[C@@H](CCCCN)C(=O)N[C@H](C(=O)N[C@@H](CCCCN)C(=O)N[C@H](C(=O)N[C@@H](CCCCN)C(=O)N[C@H](C(=O)N[C@@H](CCCCN)C(=O)N[C@H](C(=O)N1CCC[C@@H]1C(=O)N1CCC[C@H]1C(=O)N[C@H](C(=O)N[C@@H](CCCCN)C(=O)N[C@H](C(=O)N[C@@H](Cc1ccc(O)cc1)C(=O)N[C@H](C(=O)N[C@@H](CCCCN)C(=O)N[C@H](C(=O)N[C@@H](CCCCN)C(=O)N[C@H](C(N)=O)C(C)C)C(C)C)C(C)C)C(C)C)[C@@H](C)O)C(C)C)C(C)C)C(C)C)C(C)C [tyrosine-functionalized peptide] (H-VKVKVKVKV[dP]PTKVYVKVKV-NH2)

— PMC7813677 (Frontiers in Bioengineering and Biotechnology, 2021)
